Activity calls are given as the source filed them. The rule behind the calls is not given here.

For orientation: IC50 means the point on the concentration scale where inhibition reaches its midpoint.

In assay [1] the test system is Mus musculus. As to the kind of experiment: Anti-MASH activity in HFD-fed CCl4-treated male C57BL/6 mouse assessed as decrease in liver MDA level at 150 mg/kg, po qd treated for 4 weeks. In kind it is functional, organism-based.
Assay [2] relates to Rattus norvegicus. As to the kind of experiment: Hepatoprotective activity in male Sprague-Dawley rat model of CCl4-induced ALI assessed as restoration of serum AST level at 100 mg/kg, IG qd pretreated with compound for 7 days followed by CCl4 administration after 2 hrs post-compound treatment measured after 16 hrs post-CCl4 injection. It counts as functional, organism-based. Particulars: time 186.0 hrs.

For assay [3], the system named is L02. As to the kind of experiment: Anti-MASH activity in CCl4-stimulated human LO2 cells assessed as reduction in ROS level incubated for 24 hrs by DCFH-DA staining assay. It counts as functional, cell-based. Particulars: dose 2.5-10 µM.
A short description of assay [4]: Inhibition of lipid peroxidation in egg yolk (unknown origin) preheated with compound and FeSO4 for 15 mins followed by TCA/TBA addition measured after 15 mins by absorbance based assay. It counts as functional, tissue-based.
In assay [5] the test system is Mus musculus. As to the kind of experiment: Anti-MASH activity in HFD-fed CCl4-treated male C57BL/6 mouse assessed as reversal of hepatopancreas somatic indices at 150 mg/kg, po qd treated for 4 weeks. In kind it is functional, organism-based.
Assay [6] deals with Rattus norvegicus. As to the kind of experiment: Hepatoprotective activity in male Sprague-Dawley rat model of CCl4-induced ALI assessed as reduction in roughened surface in liver at 100 mg/kg, IG qd pretreated with compound for 7 days followed by CCl4 administration after 2 hrs post-compound treatment measured after 16 hrs post-CCl4 injection. The settings on record: time 186.0 hrs. It counts as functional, organism-based.

Assay [7] has as its system Mus musculus. As to the kind of experiment: Anti-MASH activity in HFD-fed CCl4-treated male C57BL/6 mouse assessed as reduction in collagen deposition in liver at 150 mg/kg, po qd treated for 4 weeks by Masson staining based analysis. In kind it is functional, organism-based.
The test system of assay [8] is Mus musculus. The experiment in a line: Anti-MASH activity in HFD-fed CCl4-treated male C57BL/6 mouse assessed as reduction in liver IL-6 level at 150 mg/kg, po qd treated for 4 weeks by ELISA. It counts as functional, organism-based. Background: In an ELISA, binding on a coated surface is turned into a signal by an enzyme label.
Assay [9] relates to L02. The experiment in a line: Anti-MASH activity in palmitate/oleate-stimulated human LO2 cells assessed as reduction in lipid accumulation at 10 to 40 uM incubated for 24 hrs by Oil Red O staining assay. It counts as functional, cell-based. Particulars: dose 10-40 µM.
For assay [10], the system named is Mus musculus. The experiment in a line: Anti-MASH activity in HFD-fed CCl4-treated male C57BL/6 mouse assessed as reduction in liver TNF-alpha level at 150 mg/kg, po qd treated for 4 weeks by ELISA. It counts as functional, organism-based.

Consider `COc1cc([C@@H]2Oc3cc([C@H]4Oc5cc(O)cc(O)c5C(=O)[C@@H]4O)ccc3OC2CS)ccc1O` (stereo not given in full), for which the Activity entry with Mus musculus [1] is “Active; Compound Was More Significant Than Silybin”. For the same compound, the result in the assay on Rattus norvegicus [2], in the assay with L02 [3], in the assay on Mus musculus [5], in the assay on Rattus norvegicus [6], with Mus musculus [7] and with Mus musculus [8] was Active. Moreover, the result in the assay on L02 [9] and with Mus musculus [10] was Active. Moreover, the half-maximal inhibitory concentration (IC50) in assay [4] is 41.7 µM.

The record behind these values is ChEMBL document CHEMBL6182935, “Discovery of a Novel Silybin Derivative for the Treatment of Metabolic Dysfunction-Associated Steatohepatitis” (J Med Chem, 2025).
